In one series the test system is MXD3 mRNA. In words: MXD3 mRNA levels in K-562 cells by quantitative real-time PCR. Format: cell-based, human. The following applies: for MXD3 mRNA at 10 μM oligonucleotide (% control): K-562 cells electroporated with 10 μM, ~24 hours, relative to untreated control; for IC50: K-562 cells, MXD3 mRNA, 0-35.0 μM, approximate values. From the text: Several hundred antisense oligonucleotides that target human MAX Dimerization Protein 3 (MXD3), GENBANK accession number NT_023133.13 truncated 21540000 to 21577000, SEQ ID NO: 1, were synthesized using standard solid phase oligonucleotide synthetic methods. They are chimeric oligonucleotides (“gapmers”) 16 nucleotides in length, composed of a central “gap” region consisting of 10 2′-deoxynucleotides, which is flanked on both sides (5′ and 3′) by three-nucleotide “wings”. The wings are composed of 4′-CH(CH3)—O-2′ modified nucleotides, also known as constrained ethyl or (S)-cEt nucleotides. The internucleoside (backbone) linkages are phosphorothioate throughout the oligonucleotides. All cytosine residues are 5-methylcytosines. The sequences of selected MXD3 targeting antisense oligonucleotides and their start and stop sites along GENBANK accession number NT_023133.13 truncated 21540000 to 21577000 are shown in Table 1 below.
The antisense oligonucleotides were analyzed for their effects on target mRNA levels. K-562 cells were plated at a density of 50,000 cells per well in 96-well plates and were electroporated with 10 μM oligonucleotide or with no oligonucleotide for untreated controls. After approximately 24 hours, RNA was isolated from the cells, and MXD3 mRNA levels were measured by quantitative real-time PCR using primer probe set RTS4263 (forward: 5′-[…]-3′, SEQ ID NO: 2; reverse: 5′-TGGCCAAGGGTTCCATGT-3′, SEQ ID NO: 3; probe: 5′-CTGCAGCCGCTTGCTCCGG-3′, SEQ ID NO: 4). MXD3 mRNA levels were adjusted according to total RNA content, as measured by RIBOGREEN®. Results for selected oligonucleotides are presented as average percent MXD3 mRNA level, relative to untreated control cells, in Table 1.
A subset of the MXD3 targeting antisense oligonucleotides were selected for dose response analysis in K-562 cells. Cells were electroporated with 0, 2.19, 8.75, or 35.0 μM antisense oligonucleotide and analyzed as described above. Results for selected oligonucleotides are presented as approximate IC50 values in Table 1.

Series [1] is described as follows: Tolerability of antisense oligonucleotides in BALB/c mice. It is filed as in vivo. The following applies: 50 mg/kg s.c. twice per week for three weeks, #1 most favorable, #13 least favorable. How it is done: Selected antisense oligonucleotides were then tested for tolerability in vivo. Six week old, male BALB/c mice were injected subcutaneously twice per week for three weeks with 50 mg/kg of an antisense oligonucleotide listed in Table 1 or with PBS. Each treatment group consisted of 4 animals. Two days following the final oligonucleotide administration, the mice were sacrificed and plasma transaminase levels, body weights, and organ weights were evaluated relative to the PBS treated group. Isis numbers 632417, 632461, and 632640 had the most favorable tolerability rankings and were selected as leads. Isis No. 632461 targets human, mouse, and monkey MXD3 sequences with no mismatches and was chosen for use in further studies.

The subject of a further series is Reh cells. The series can be described thus: Reh cell growth, number of live cells (MTT assay). Format: cell-based, human. The following applies: for IC50: Homo sapiens, experimentally determined, Reh cells; for Average number of live cells × 10^3: Table 9, Reh cells, conjugate 2 μM oligonucleotide, Doxorubicin 2.56 ng/mL, Vincristine 1.18 ng/mL. For orientation: Tetrazolium dyes change colour on reduction, which living cells bring about.

In brackets after ≈: the same amount, converted by molar mass. Oligonucleotides are written 5' to 3', each unit as a sugar letter and its base; * is a phosphorothioate linkage, no mark a phosphodiester; rarer units and linkages stand in square brackets, end groups in braces. Plain capitals give the bases only. k = constrained ethyl (cEt); [5mC] = 5-methylcytosine; d = 2'-deoxy (DNA)

The values below come from patent publication US9714288B2, “Antisense compounds and uses thereof” (The Regents of the University of California, priority 2014, dated 2017).

A word on the IC50: it is the concentration needed to halve the response being measured. Low values mean greater potency in that assay, high ones weaker potency in that assay. Take “632407 (antisense k[5mC]*kA*kT*d[5mC]*d[5mC]*dA*d[5mC]*d[5mC]*d[5mC]*dA*d[5mC]*dG*d[5mC]*k[5mC]*kG*kG) [compound 632407]”: in the series with MXD3 mRNA, the “MXD3 mRNA at 10 μM oligonucleotide (% control)” value (“MXD3 mRNA … (% control)” for short) is reported as 60.5 % control and the IC50 was found to be 1.64 µM. In addition, the “Ranking (tolerability)” value in series [1] was 12.
Turning to “632417 (antisense kG*kG*k[5mC]*d[5mC]*d[5mC]*dT*dG*dG*dA*dG*d[5mC]*dG*dA*kA*k[5mC]*k[5mC]) [compound 632417]”, in the series on MXD3 mRNA, the “MXD3 mRNA … (% control)” value stood at 38.3 % control and half-maximal inhibition (IC50) was put at 7.05 µM. For the same compound, the “Ranking (tolerability)” value in series [1] is given as 1.
The corresponding values for “632424 (antisense kA*kG*k[5mC]*d[5mC]*dG*d[5mC]*dA*dG*d[5mC]*d[5mC]*d[5mC]*dA*d[5mC]*k[5mC]*k[5mC]*kT) [compound 632424]” are 94.4 % control, 1.64 µM and 9.
As for “632460 (antisense kA*kT*kA*dA*d[5mC]*d[5mC]*dA*dT*dG*d[5mC]*dT*d[5mC]*dG*kG*k[5mC]*k[5mC]) [compound 632460]”, in the series with MXD3 mRNA, the “MXD3 mRNA … (% control)” value was 59.0 % control and it took 2.95 µM to reach half-maximal inhibition (IC50). In addition, in series [1], the “Ranking (tolerability)” value amounted to 13.
The corresponding values for “632461 (antisense k[5mC]*kA*k[5mC]*dA*dG*dG*dG*dA*d[5mC]*dG*d[5mC]*dA*dT*kA*kA*k[5mC]) [compound 632461]” are 59.8 % control, 8.99 µM and 2.
“632527 (antisense k[5mC]*kA*kT*d[5mC]*dA*dT*dA*dG*d[5mC]*d[5mC]*dA*dG*dG*k[5mC]*kG*k[5mC]) [compound 632527]”: in the series with MXD3 mRNA, the “MXD3 mRNA … (% control)” value is recorded as 76.5 % control and the IC50 stood at 9.23 µM. The “Ranking (tolerability)” value in series [1] is given as 8.
The corresponding values for “632528 (antisense kA*kG*kG*dA*dA*d[5mC]*dA*dT*d[5mC]*dA*dT*dA*dG*k[5mC]*k[5mC]*kA) [compound 632528]” are 63.6 % control, 5.89 µM and 5.
For “632634 (antisense kG*kG*kA*dT*dT*dA*d[5mC]*dT*dG*dT*d[5mC]*d[5mC]*dT*kA*kG*kG) [compound 632634]”, in that order: 47.4 % control, 5.71 µM and 10.
For “632640 (antisense k[5mC]*kA*kA*dG*d[5mC]*dA*dA*d[5mC]*dA*dA*dG*dT*dG*kG*kG*k[5mC]) [compound 632640]”, in that order: 65.6 % control, 0.38 µM and 3.
Regarding “632669 (antisense kT*kA*kA*dA*d[5mC]*dA*d[5mC]*dT*dT*dG*dT*d[5mC]*dA*kG*kA*kG) [compound 632669]”, in the series on MXD3 mRNA, the “MXD3 mRNA … (% control)” value worked out at 34.0 % control and the IC50 stood at 9.05 µM. The “Ranking (tolerability)” value in series [1] was found to be 4.
The corresponding values for “632672 (antisense kA*kT*k[5mC]*d[5mC]*dA*dT*d[5mC]*d[5mC]*dG*dA*dG*dA*dA*k[5mC]*k[5mC]*kA) [compound 632672]” are 50.3 % control, 4.76 µM and 6.
As to “632673 (antisense k[5mC]*kA*k[5mC]*dA*dT*d[5mC]*dA*dT*d[5mC]*d[5mC]*dA*dT*d[5mC]*k[5mC]*kG*kA) [compound 632673]”, in the series on MXD3 mRNA, the “MXD3 mRNA … (% control)” value was found to be 27.5 % control and the IC50 was 5.58 µM. Besides, in series [1], the “Ranking (tolerability)” value was 7.
The corresponding values for “632682 (antisense kG*kT*k[5mC]*dA*dT*dT*d[5mC]*dA*dA*d[5mC]*dA*dA*dG*kA*kA*kG) [compound 632682]” are 28.4 % control, 5.61 µM and 11.
`COc1cccc2c1C(=O)c1c(O)c3c(c(O)c1C2=O)C[C@@](O)(C(=O)CO)C[C@@H]3O[C@H]1C[C@H](N)[C@H](O)[C@H](C)O1` [Doxo, Doxorubicin] yielded an IC50 with Reh cells of 2.56 ng/mL (≈ 4.71 nM). The “Average number of live cells × 10^3” value is reported as 22.3 × 10^3 with Reh cells (4 hours); 22.9 × 10^3 in the series with Reh cells (8 hours); 30 × 10^3 with Reh cells (24 hours); 37 × 10^3 in the series with Reh cells (48 hours); 41.8 × 10^3 with Reh cells (72 hours).
In turn, `CC[C@]1(O)C[C@H]2CN(CCc3c([nH]c4ccccc34)[C@@](C(=O)OC)(c3cc4c(cc3OC)N(C=O)[C@H]3[C@@](O)(C(=O)OC)[C@H](OC(C)=O)[C@]5(CC)C=CCN6CC[C@]43[C@@H]65)C2)C1` [Vcr, Vincristine] came in with an IC50 in the series on Reh cells of 1.18 ng/mL (≈ 1.43 nM). Further, the “Average number of live cells × 10^3” value with Reh cells (4 hours) is 20.2 × 10^3; in the series on Reh cells (8 hours), 19.6 × 10^3; in the series with Reh cells (24 hours), 27.8 × 10^3; in the series on Reh cells (48 hours), 33.1 × 10^3; with Reh cells (72 hours), 34.8 × 10^3.
